Experiments:
[1] = molecular target: T1, CD73 on U138 human neuroglioma cells (Homo sapiens, UniProt P21589); assay: CD73 Cell-Based Assay (inorganic phosphate from AMP, malachite green); details: AMP substrate, 2 hours at 37° C., read-out: CD73 Cell-Based assay IC50
T1 construct: U138 cells were obtained from ATCC and cultured in DMEM with 10% FBS; host or cells: U138 human neuroglioma cells
T1 sequence (P21589 27-549): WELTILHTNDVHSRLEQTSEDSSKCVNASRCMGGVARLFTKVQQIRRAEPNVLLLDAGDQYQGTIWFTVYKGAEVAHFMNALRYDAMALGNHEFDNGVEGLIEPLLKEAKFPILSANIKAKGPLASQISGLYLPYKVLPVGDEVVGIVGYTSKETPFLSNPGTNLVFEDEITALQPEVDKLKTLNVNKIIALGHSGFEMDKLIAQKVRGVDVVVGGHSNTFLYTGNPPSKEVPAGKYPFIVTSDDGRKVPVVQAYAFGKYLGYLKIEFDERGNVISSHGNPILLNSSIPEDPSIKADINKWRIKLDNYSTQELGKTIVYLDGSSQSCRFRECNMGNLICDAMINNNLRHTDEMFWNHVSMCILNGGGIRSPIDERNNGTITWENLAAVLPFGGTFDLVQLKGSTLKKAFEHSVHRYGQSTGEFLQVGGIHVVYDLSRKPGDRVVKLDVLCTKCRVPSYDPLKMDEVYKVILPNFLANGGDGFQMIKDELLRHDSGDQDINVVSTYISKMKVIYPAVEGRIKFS
Procedure: U138 human neuroglioma cells were used in these experiments. U138 cells were obtained from ATCC and cultured in DMEM with 10% FBS. 2500 cells were seeded into 96-well plate with 100 μL of media the day before the experiment. […] After washing, 100 μL of buffer was added to each well, then 100 μL of a mixture of AMP substrate (200 μM) and diluted compound was added to each well. The cells were incubated at 37° C. (with 5% CO2) for 2 hours. 50 μL of supernatant was transferred to a 96-well assay plate and the concentration of inorganic phosphate was determined using malachite green reagent (R&D System; Cat: DY996).

Human CD73 = molecular target: T2, Human CD73 (Homo sapiens, UniProt P21589); assay: CD73 Enzyme Assay (EnzChek PNP/MESG kinetic readout of AMP hydrolysis); type: biochemical; details: 0.25 nM hCD73, 25 μM AMP; read-out: CD73 Enzyme Assay IC50
T2 construct: purchased R&D Systems; host or cells: CHO cells
T2 sequence (P21589 27-549): T1 sequence (P21589 27-549)
Procedure: A compound of the present disclosure (5 μL) was transferred to a 384-well assay plate. The compound was added in a 15 point, 3-fold serial dilution (300 μM to 0.0002 μM) in DMSO. […] The plate was immediately placed in a plate reader (Synergy 2 or Spark 10), and a reading was taken every minute for 10 to 20 minutes in a kinetic run at 360 nm. The linear portion of the curve was used to determine the observed rate (initial velocity). Low signal controls containing 100 μM adenosine 5′-(α,β-methylene) diphosphate and high signal controls containing no compound were measured for each plate.
IC50 values were calculated using Dotmatics template equation for 4-parameter fit. Results are expressed as % inhibition using the following equation: […]

Compound | IC50 [1] [µM] | IC50 (Human CD73) [µM]
N#Cc1c(Cl)nc2c(ncn2[C@@H]2O[C@H](COCP(=O)(O)O)[C@@H](O)[C@H]2O)c1N1CC(F)(F)C1 [Compound 82] | < 0.01 | < 0.01
N#Cc1c(Cl)nc2c(cnn2[C@@H]2O[C@H](COCP(=O)(O)O)[C@@H](O)[C@H]2O)c1NC1CC(F)C1 (stereo partly drawn) [Compound 89] | < 0.01 | < 0.01
N#Cc1c(Cl)nc2c(cnn2[C@@H]2O[C@H](COCP(=O)(O)O)[C@@H](O)[C@H]2O)c1N1CC[C@@H](F)C1 [Compound 90] | < 0.01 | < 0.01
N#Cc1c(Cl)nc2c(ncn2[C@@H]2O[C@H](COCP(=O)(O)O)[C@@H](O)[C@H]2O)c1N1CCC(F)(F)C1 [Compound 94, ((((2R,3S,4R,5R)-5-(5-chloro-6-cyano-7-(3,3-difluoropyrrolidin-1-yl)-3H-imidazo[4,5-b]pyridin-3-yl)-3,4-dihydroxytetrahydrofuran-2-yl)methoxy)methyl)phosphonic acid] | < 0.01 | < 0.01
N#Cc1c(Cl)nc2c(cnn2[C@@H]2O[C@H](COP(=O)(O)CP(=O)(O)O)[C@@H](O)[C@@H]2F)c1N1CCC(F)(F)C1 [Compound 95, (((((2R,3R,4S,5R)-5-(6-chloro-5-cyano-4-(3,3-difluoropyrrolidin-1-yl)-1H-pyrazolo[3,4-b]pyridin-1-yl)-4-fluoro-3-hydroxytetrahydrofuran-2-yl)methoxy)(hydroxy)phosphoryl)methyl)phosphonic acid] | < 0.01 | < 0.01
N#Cc1c(Cl)nc2c(ncn2[C@@H]2O[C@H](COP(=O)(O)CP(=O)(O)O)[C@@H](O)[C@@H]2F)c1N1CCC(F)(F)C1 [Compound 97] | < 0.01 | < 0.01
N#Cc1nc2c(ccn2[C@@H]2O[C@H](COCP(=O)(O)O)[C@@H](O)[C@H]2O)c(NC2CCCC2)c1Cl [Compound 101] | < 0.01 | < 0.01

Now from value to molecule:

IC50 [1] [µM] | IC50 (Human CD73) [µM] | Compound
< 0.01 | < 0.01 | N#Cc1c(Cl)nc2c(ncn2[C@@H]2O[C@H](COCP(=O)(O)O)[C@@H](O)[C@H]2O)c1N1CC[C@@H](F)C1 [Compound 83]
< 0.01 | < 0.01 | N#Cc1c(Cl)nc2c(ncn2[C@@H]2O[C@H](COCP(=O)(O)O)[C@@H](O)[C@H]2O)c1N1CC[C@H](F)C1 [Compound 84]
< 0.01 | < 0.01 | N#Cc1c(Cl)nc2c(cnn2[C@@H]2O[C@H](COCP(=O)(O)O)[C@@H](O)[C@H]2O)c1N1C[C@@H](F)[C@@H](F)C1 [Compound 91, ((((2R,3S,4R,5R)-5-(6-chloro-5-cyano-4-((3S,4R)-3,4-difluoropyrrolidin-1-yl)-1H-pyrazolo[3,4-b]pyridin-1-yl)-3,4-dihydroxytetrahydrofuran-2-yl)methoxy)methyl)phosphonic acid]
< 0.01 | < 0.01 | N#Cc1c(Cl)nc2c(ncn2[C@@H]2O[C@H](COCP(=O)(O)O)[C@@H](O)[C@H]2O)c1N1C[C@@H](F)[C@@H](F)C1 [Compound 92, ((((2R,3S,4R,5R)-5-(5-chloro-6-cyano-7-((3S,4R)-3,4-difluoropyrrolidin-1-yl)-3H-imidazo[4,5-b]pyridin-3-yl)-3,4-dihydroxytetrahydrofuran-2-yl)methoxy)methyl)phosphonic acid]
< 0.01 | < 0.01 | N#Cc1c(Cl)nc2c(ncn2[C@@H]2O[C@H](COCP(=O)(O)O)[C@@H](O)[C@H]2O)c1N1C[C@@H](F)[C@H](F)C1 [Compound 93]
< 0.01 | < 0.01 | N#Cc1c(Cl)nc2c(ccn2[C@@H]2O[C@H](COP(=O)(O)CP(=O)(O)O)[C@@H](O)[C@@H]2F)c1N1CCC(F)(F)C1 [Compound 96]
< 0.01 | < 0.01 | N#Cc1nc2c(ccn2[C@@H]2O[C@H](COCP(=O)(O)O)[C@@H](O)[C@H]2O)c(N2CCC(F)(F)C2)c1Cl [Compound 102]
< 0.01 | < 0.01 | N#Cc1nc2c(ccn2[C@@H]2O[C@H](COCP(=O)(O)O)[C@@H](O)[C@H]2O)c(N2C[C@@H](F)[C@@H](F)C2)c1Cl [Compound 103]

From patent publication US12331068B2, “Compositions and methods for inhibiting CD73” (Peloton Therapeutics, Inc., priority 2018, dated 2025)
